Laboratory results published in patent publication US8067470B2, “Linoleic acid preparations for the topical treatment of male and female pattern androgenetic alopecia, age-related alopecia, and keratosis pilaris” (priority 2008, dated 2011).

Legend:
P. acnes [1] = details: parallel to reduction of sebaceous gland oil production; cited from earlier work
balding scalp = experiment: observation of balding scalp in a person treated with 13-cis-retinoic acid for cystic acne; assay type: in vivo, human; details: person treated for five months for cystic acne
From the text: Linoleic acid has been proven in vitro to prevent growth of P. acnes in culture at concentrations similar to the normal level found in follicles not influenced by DHT stimulation of oil production. […] 8 Leyden, James J. M D et al., “Qualitative and Quantitative Changes in Cutaneous Bacteria Associated with Systemic Isotretinoin Therapy for Acne Conglobata”, Journal of Investigative Dermatology, Vol. 86, 390-393, 1986.

male pattern AGA = details: cited from earlier work
keratosis pilaris = experiment: topical linoleic acid oil in patients with keratosis pilaris; assay type: in vivo, human; details: in the form of an oil, more than 20 patients
From the text: In pre-pubertal children prior to hormonal stimulation of facial oil production, it can be seen transiently on the cheeks, typically the least oily part of the face. […] The histology is reminiscent of the intra-follicular hyperkeratosis and low-level microinflammation seen in AGA follicles, except that AGA scalp follicles are larger and have large sebaceous glands opening into them. It is likely that localized linoleic acid deficiency with resultant aberrations in keratinization and in inflammation, due to permissive changes in microflora such as P. acnes and yeasts, is its etiology. Topical linoleic acid preparations would therefore be a logical approach to the treatment of the condition.

P. acnes [2] = details: prior art of this inventor; cited from earlier work

## CC1=C(/C=C/C(C)=C/C=C/C(C)=C\C(=O)O)C(C)(C)CCC1 [13-cis-retinoic acid]
P. acnes [1]
  P. acnes counts in acne-prone skin: parallel and equal reduction in P. acnes counts
Balding scalp
  terminal (full sized) hair growth in balding scalp: increased terminal (full sized) hair growth

## CC(C)(C)NC(=O)[C@H]1CC[C@H]2[C@@H]3CC[C@H]4NC(=O)C=C[C@]4(C)[C@H]3CC[C@]12C [finasteride]
Male pattern AGA; after one month, oral
  recipients who lost less scalp hair: 95%
Male pattern AGA; after six months, oral
  recipients who began regrowing lost hairs: 67%
Male pattern AGA; in vivo
  balding recipients showing poor or no response: ≥ 35%

## CCCCC/C=C\C/C=C\CCCCCCCC(=O)O [linoleic acid]
Keratosis pilaris
  roughness and redness of clinical keratosis pilaris: amelioration of both the roughness and redness
P. acnes [2]
  concentration required to completely inhibit growth of P. acnes in culture: 2%
